Measurements published in patent publication US12043600B2, “Microbiocidal compounds” (SYNGENTA CROP PROTECTION AG, priority 2018, dated 2024).
Read-outs that look alike come from different tables or passages of the source.

Assays:
[1] = tested on: Puccinia recondita f. sp. tritici; test: Puccinia recondita f. sp. tritici/Wheat/Leaf Disc Curative (Brown Rust); format: in vivo; settings: foliar, wheat leaf disc curative, compared to untreated control
Outline: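 Formulated compound, diluted in water, is applied to inoculated wheat cv. Kanzler leaf segments on agar one day post-inoculation (pre-incubation dark, 19° C, 75% rh). After 6-8 days at 19° C, 75% rh and 12 h/12 h light, activity is rated as percent disease control relative to untreated segments.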

[2] = tested on: Sclerotinia sclerotiorum; test: Sclerotinia sclerotiorum/Liquid Culture (Cottony Rot); format: cell-based; settings: liquid culture, compared to untreated control
Method: (§1) Mycelia fragments of a newly grown liquid culture of the fungus are directly mixed into nutrient broth (PDB potato dextrose broth). After placing a (DMSO) solution of test compound into a microtiter plate (96-well format) the nutrient broth containing the fungal material is added.

[3] = tested on: Mycosphaerella arachidis (Cercospora arachidicola); test: Mycosphaerella arachidis (Cercospora arachidicola)/Liquid Culture (Early Leaf Spot); format: cell-based; settings: liquid culture, compared to untreated control
Outline: (§2)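 PDB + cryo-stored conidia; compound in DMSO pre-plated, spore broth added on top.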

[4] = tested on: Blumeria graminis f. sp. tritici (Erysiphe graminis f. sp. tritici); test: Blumeria graminis f. sp. tritici/Wheat/Leaf Disc Preventative (Powdery Mildew on Wheat); format: in vivo; settings: foliar, wheat leaf disc preventative, compared to untreated control
Outline: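 Preventative leaf-disc test: percent disease control versus untreated leaf segments read 6-8 days post-application. Compound spray applied to wheat cv. Kanzler segments on agar one day before shaking infected plants over them; incubation at 20° C and 60% rh, 24 h darkness then 12 h light/12 h dark cycles.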

[5] = tested on: Pythium ultimum; test: Pythium ultimum/Liquid Culture (Seedling Damping Off); format: cell-based; settings: Globisporangium ultimum, liquid culture, compared to untreated control
Method: as §1, with “fragments and oospores” for “fragments”, “format),” for “format)”, “mycelia/spore mixture” for “material”

[6] = tested on: Alternaria solani; test: Alternaria solani/Tomato/Leaf Disc (Early Blight); format: in vivo; settings: foliar, tomato leaf disc, compared to untreated control
Outline: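 Protective leaf-disc test: compound sprayed onto tomato cv. Baby disks, spore inoculation following after 2 days. Disks kept at 80% rh, 12/12 h light/dark, 23° C. day and 21° C. night; activity read as percent disease control relative to untreated checks 5-7 days post-application.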

[7] = tested on: Monographella nivalis (Microdochium nivale); test: Monographella nivalis (Microdochium nivale)/Liquid Culture (Foot Rot Cereals); format: cell-based; settings: liquid culture, compared to untreated control
Outline: as §2

[8] = tested on: Glomerella lagenarium (Colletotrichum lagenarium); test: Glomerella lagenarium (Colletotrichum lagenarium)/Liquid Culture (Anthracnose); format: cell-based; settings: Colletotrichum orbiculare, liquid culture, compared to untreated control
[9] = tested on: Mycosphaerella graminicola (Septoria tritici); test: Mycosphaerella graminicola (Septoria tritici)/Liquid Culture (Septoria Blotch); format: cell-based; settings: Zymoseptoria tritici; 20 ppm; liquid culture; compared to untreated control
Outline: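 Results given as % disease control: test compound in DMSO was placed in wells first, then potato dextrose broth carrying cryostored fungal conidia was added.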

[10] = tested on: Magnaporthe grisea (Pyricularia oryzae); test: whole plant or invertebrate; format: in vivo; settings: foliar, read-out: control of Magnaporthe grisea
[11] = tested on: Thanatephorus cucumeris (Rhizoctonia solani); test: Thanatephorus cucumeris (Rhizoctonia solani)/Liquid Culture (Foot Rot, Damping-Off); format: cell-based; settings: liquid culture, compared to untreated control
Method: Mycelia fragments of a newly grown liquid culture of the fungus are directly mixed into nutrient broth (PDB potato dextrose broth). After placing a (DMSO) solution of the test compounds into a microtiter plate (96-well format), the nutrient broth containing the fungal material is added.

[12] = tested on: Plasmopara viticola; test: whole plant or invertebrate; format: in vivo; settings: foliar, read-out: control of Plasmopara viticola
[13] = Photostability assay (Atlas Suntest); format: physicochemical; settings: Suntest 750 W/m^2, spotted on microscope slides
Outline: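 Compound (2 μl of 1 g/L methanol stock) spotted on glass slides and irradiated at 750 W/m^2 in a Suntest. Slides were washed with H2O:MeCN:THF 50:40:10 and analysed by reverse-phase UPLC-PDA; peak area versus initial gave % parent remaining at 3 hours.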

[14] = tested on: Phaeosphaeria nodorum (Septoria nodorum); test: Phaeosphaeria nodorum (Septoria nodorum)/Wheat/Leaf Disc Preventative (Glume Blotch); format: in vivo; settings: Parastagonospora nodorum, foliar, wheat leaf disc preventative, compared to untreated control
Outline: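 Preventative test: compound spray first, then spore inoculation after 2 days on cv. Kanzler wheat leaf segments. Incubation in a climate cabinet at 20 °C and 75% rh under a 12 h light/12 h dark cycle. Activity rated as % control relative to untreated discs at 5–7 days post-application.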

[15] = tested on: Puccinia recondita f. sp. tritici; test: Puccinia recondita f. sp. tritici/Wheat/Leaf Disc Preventative (Brown Rust); format: in vivo; settings: foliar, 200 ppm, wheat leaf disc preventative, compared to untreated control, read-out: control of Puccinia recondita f. sp. tritici
[16] = tested on: Phytophthora infestans; test: whole plant or invertebrate; format: in vivo; settings: in Solanum lycopersicum, foliar, read-out: control of Phytophthora infestans
[17] = tested on: Phakopsora pachyrhizi; test: Phakopsora pachyrhizi/Soybean/Preventative (Soybean Rust); format: in vivo; settings: 288 h
[18] = tested on: Botryotinia fuckeliana (Botrytis cinerea); test: Botryotinia fuckeliana (Botrytis cinerea)/Liquid Culture (Gray Mould); format: cell-based; settings: liquid culture, compared to untreated control
Method: Conidia of the fungus from cryogenic storage are directly mixed into nutrient broth (Vogels broth). After placing a (DMSO) solution of test compound into a microtiter plate (96-well format), the nutrient broth containing the fungal spores is added.

[19] = foliar, soybean leaf disc preventative, compared to untreated control, read-out: control of Phakopsora pachyrhizi

SMILES: CO/C=C(\Oc1cc(-n2ccc(C(C)(F)F)n2)ccc1C)C(=O)OC [Compound E-68, methyl (Z)-2-[5-[3-(1,1-difluoroethyl)pyrazol-1-yl]-2-methyl-phenoxy]-3-methoxy-prop-2-enoate]
- pest or weed control at 200 ppm [1]: ≥ 80%
- inhibition of growth at 20 ppm [2]: ≥ 80%
- inhibition of growth at 20 ppm [3]: ≥ 80%
- pest or weed control at 200 ppm [4]: ≥ 80%
- inhibition of growth at 20 ppm [5]: ≥ 80%
- pest or weed control at 200 ppm [6]: ≥ 80%
- inhibition of growth at 20 ppm [7]: ≥ 80%
- inhibition of growth at 20 ppm [8]: ≥ 80%
- inhibition of growth at 20 ppm [9]: ≥ 80%
- pest or weed control at 200 ppm [10]: ≥ 80%
- melting point: 119 to 121 °C
- inhibition of growth at 20 ppm [11]: ≥ 80%
- pest or weed control at 200 ppm [12]: ≥ 80%
- % Parent Remaining @ 3 hrs [13]: 40%
- pest or weed control at 200 ppm [14]: ≥ 80%
- pest or weed control at 200 ppm [15]: ≥ 80%

SMILES: CO/C=C(\Oc1cc(-n2ccc(C(C)(C)C)n2)ccc1C)C(=O)OC [Compound E-103, methyl (Z)-2-[5-(3-tert-butylpyrazol-1-yl)-2-methyl-phenoxy]-3-methoxy-prop-2-enoate]
- pest or weed control at 200 ppm [1]: ≥ 80%
- pest or weed control at 200 ppm [16]: ≥ 80%
- inhibition of growth at 20 ppm [3]: ≥ 80%
- pest or weed control at 200 ppm [4]: ≥ 80%
- inhibition of growth at 20 ppm [5]: ≥ 80%
- pest or weed control at 200 ppm [17, 19]: ≥ 50%
- inhibition of growth at 20 ppm [7]: ≥ 80%
- inhibition of growth at 20 ppm [8]: ≥ 80%
- inhibition of growth at 20 ppm [9]: ≥ 80%
- inhibition of growth at 20 ppm [18]: ≥ 80%
- pest or weed control at 200 ppm [10]: ≥ 80%
- pest or weed control at 200 ppm [12]: ≥ 80%
- pest or weed control at 200 ppm [14]: ≥ 80%
- pest or weed control at 200 ppm [15]: ≥ 80%

SMILES: CO/C=C(\Oc1cc(-n2ccc(C3CCCC3)n2)ccc1C)C(=O)OC [Compound E-5, methyl (Z)-2-[5-(3-cyclopentylpyrazol-1-yl)-2-methyl-phenoxy]-3-methoxy-prop-2-enoate]
- pest or weed control at 200 ppm [1]: ≥ 80%
- pest or weed control at 200 ppm [16]: ≥ 80%
- inhibition of growth at 20 ppm [3]: ≥ 80%
- inhibition of growth at 20 ppm [5]: ≥ 80%
- inhibition of growth at 20 ppm [7]: ≥ 80%
- inhibition of growth at 20 ppm [8]: ≥ 80%
- inhibition of growth at 20 ppm [9]: ≥ 80%
- inhibition of growth at 20 ppm [18]: ≥ 80%
- pest or weed control at 200 ppm [10]: ≥ 80%
- pest or weed control at 200 ppm [12]: ≥ 80%
- pest or weed control at 200 ppm [15]: ≥ 80%

SMILES: CO/C=C(\Oc1cc(-n2cc(C3CCC3)cn2)ccc1C)C(=O)OC [Compound E-80, methyl (Z)-2-[5-(4-cyclobutylpyrazol-1-yl)-2-methyl-phenoxy]-3-methoxy-prop-2-enoate]
- pest or weed control at 200 ppm [1]: ≥ 80%
- pest or weed control at 200 ppm [16]: ≥ 80%
- inhibition of growth at 20 ppm [3]: ≥ 80%
- pest or weed control at 200 ppm [4]: ≥ 80%
- inhibition of growth at 20 ppm [5]: ≥ 80%
- pest or weed control at 200 ppm [6]: ≥ 80%
- pest or weed control at 200 ppm [17, 19]: ≥ 50%
- inhibition of growth at 20 ppm [7]: ≥ 80%
- inhibition of growth at 20 ppm [8]: ≥ 80%
- inhibition of growth at 20 ppm [9]: ≥ 80%
- inhibition of growth at 20 ppm [18]: ≥ 80%
- pest or weed control at 200 ppm [10]: ≥ 80%
- pest or weed control at 200 ppm [12]: ≥ 80%
- pest or weed control at 200 ppm [15]: ≥ 80%

SMILES: CO/C=C(\Oc1cc(-n2ccc(C(C)C)n2)ccc1C)C(=O)OC [Compound E-92, methyl (Z)-2-[5-(3-isopropylpyrazol-1-yl)-2-methyl-phenoxy]-3-methoxy-prop-2-enoate]
- pest or weed control at 200 ppm [16]: ≥ 80%
- inhibition of growth at 20 ppm [3]: ≥ 80%
- pest or weed control at 200 ppm [4]: ≥ 80%
- inhibition of growth at 20 ppm [5]: ≥ 80%
- pest or weed control at 0.6 ppm ([17]; Phakopsora pachyrhizi (Soybean rust), 0.6 ppm): 0%
- pest or weed control at 2 ppm ([17]; Phakopsora pachyrhizi (Soybean rust), 2 ppm): 0%
- pest or weed control at 6 ppm ([17]; Phakopsora pachyrhizi (Soybean rust), 6 ppm): 35%
- pest or weed control at 20 ppm ([17]; Phakopsora pachyrhizi (Soybean rust), 20 ppm): 90%
- pest or weed control at 60 ppm ([17]; Phakopsora pachyrhizi (Soybean rust), 60 ppm): 100%
- pest or weed control at 200 ppm ([17]; Phakopsora pachyrhizi (Soybean rust), read-out: control (%)): 100%
- inhibition of growth at 20 ppm [7]: ≥ 80%
- inhibition of growth at 20 ppm [8]: ≥ 80%
- inhibition of growth at 20 ppm [9]: ≥ 80%
- inhibition of growth at 20 ppm [18]: ≥ 80%
- pest or weed control at 200 ppm [10]: ≥ 80%
- melting point: 88 to 91 °C
- pest or weed control at 200 ppm [12]: ≥ 80%
- % Parent Remaining @ 3 hrs [13]: 33%
- pest or weed control at 200 ppm [14]: ≥ 80%

SMILES: CO/C=C(\Oc1cc(-n2ccc(C(C)C)n2)cc(OC)c1C)C(=O)OC [Compound E-21, methyl (Z)-2-[5-(3-isopropylpyrazol-1-yl)-3-methoxy-2-methyl-phenoxy]-3-methoxy-prop-2-enoate]
- pest or weed control at 200 ppm [1]: ≥ 80%
- pest or weed control at 200 ppm [16]: ≥ 80%
- inhibition of growth at 20 ppm [3]: ≥ 80%
- inhibition of growth at 20 ppm [5]: ≥ 80%
- pest or weed control at 200 ppm [6]: ≥ 80%
- inhibition of growth at 20 ppm [7]: ≥ 80%
- inhibition of growth at 20 ppm [8]: ≥ 80%
- inhibition of growth at 20 ppm [9]: ≥ 80%
- melting point: 90 to 92 °C
- pest or weed control at 200 ppm [12]: ≥ 80%
- pest or weed control at 200 ppm [15]: ≥ 80%
